We go through 17 compounds from patent US20100016392A1, “Pesticidal Aggregates” (priority 2006, published 2010).

Bounds are passed on as bounds.

A short description of series [1]: Amount of pesticide incorporated into Sokalan PA-15/Arquad 18/50 aggregate. It is filed as physicochemical. The conditions noted are these: pesticide incorporated into aggregate with 1 equivalent Sokalan PA-15 and 2 equivalents Arquad 18/50. Here is the method:
[…] of the active ingredient listed was placed into a 20 mL vial and 1 equivalent of a 1 molar sodium hydroxide solution added. The mixture was stirred until the active dissolved (0.5 or 1.0 gram of deionized water was added if necessary). One equivalent of Sokalan PA-15 (linear polyacrylic acid sodium salt with low molecular weight of 1200 g/mol) was added and the mixture mixed. 2 equivalents of Arquad 18/50 octadecyltrimethyl ammonium chloride (aqueous isopropanol solution) were added and the mixture was stirred using a vortex mixer. Using a process similar to that described in Example 2, the amount of pesticide incorporated into the aggregate was measured.

For series [2] the following is noted: cited from earlier work.
For series [3] the following is noted: cited from earlier work. This is another data set of the same source.
The nature of series [4]: Uptake of pesticide into the aggregate, UV-spectroscopy of the supernatant. The class given is physicochemical.

As to `O=C(O)c1nc(Cl)ccc1Cl` [Clopyralid (Lontrel)], the Percent a.i. in series [1] was determined as 3.46.
With `O=C(O)COc1ccc(Cl)cc1Cl` [2,4-D, (2,4-dichlorophenoxy)acetic acid], the Percent a.i. in series [1] is on record as 2.45. Further, the pKa in series [2] is listed as 2.9.
As to `CCc1cnc(C2=NC(C)(C(C)C)C(=O)N2)c(C(=O)O)c1` (racemic) [Imazethapyr, (+/−)-2-[4,5-dihydro-4-methyl-4-(1-methylethyl)-5-oxo-1H-imidazol-2-yl]-5-ethyl-3-pyridinecarboxylic acid], in series [1], the Percent a.i. turned out to be 5.57.
Turning to `COc1cc(OC)nc(NC(=O)NS(=O)(=O)c2ncccc2C(=O)N(C)C)n1` [Nicosulfuron], the Percent a.i. in series [1] is on record as 6.96. Further, the pKa in series [2] is listed as 4.5.
In the case of `CCC(CC)Nc1c([N+](=O)[O-])cc(C)c(C)c1[N+](=O)[O-]` [pendimethalin], the “octanol/water partition coefficient log P” value in series [3] is 5.2.
Regarding `Cc1c(COC(=O)[C@@H]2[C@H](/C=C(\Cl)C(F)(F)F)C2(C)C)cccc1-c1ccccc1` (racemic) [Bifenthrin], the “octanol/water partition coefficient log P” value in series [3] was over 6.
Turning to `O=C(O)CNCP(=O)(O)O` [Glyphosate, N-(phosphonomethyl)glycine], the Percent a.i. in series [1] is 4.70. For the same compound, the pKa in series [2] is reported as 4.4.
Regarding `COc1c(Cl)ccc(Cl)c1C(=O)O` [Dicamba, 3,6-dichloro-2-methoxybenzoic acid], in series [1], the Percent a.i. is on record as 3.77. The pKa in series [2] is reported as 3.
Consider `N#Cc1cc(Br)c(O)c(Br)c1` [Bromoxynil, 3,5-dibromo-4-hydroxybenzonitrile], for which the Percent a.i. in series [1] amounted to 4.34.
On to `CCOc1nc(F)cc2nc(S(=O)(=O)Nc3c(Cl)cccc3C(=O)OC)nn12` [Cloransulam-methyl], for which the Percent a.i. in series [1] was determined as 5.11. Further, the pKa in series [2] is given as 5.4.
Turning to `CS(=O)(=O)NC(=O)c1cc(Oc2ccc(C(F)(F)F)cc2Cl)ccc1[N+](=O)[O-]` [Fomesafen, 5-[2-chloro-4-(trifluoromethyl)phenoxy]-N-(methylsulfonyl)-2-nitrobenzamide], in series [1], the Percent a.i. was found to be 7.17.
With `Cc1nn(-c2cc(NS(C)(=O)=O)c(Cl)cc2Cl)c(=O)n1C(F)F` [Sulfentrazone], the “Uptake of sulfentrazone in the aggregate” value is 74 w/w % in series [4] (mixture: Atlox 550S 0.075, C14NBr 0.5, sulfentrazone 0.5 weight %); 83 w/w % in series [4] (mixture: Atlox 550S 0.15, C14NBr 0.7, sulfentrazone 0.5 weight %); 77 w/w % in series [4] (mixture: Atlox 550S 0.25, C14NBr 0.75, sulfentrazone 0.5 weight %); 90 w/w % in series [4] (mixture: Atlox 550S 0.5, C14NBr 1.25, sulfentrazone 0.5 weight %); 82 w/w % in series [4] (mixture: REAX 88B 0.25, C14NBr 0.6, sulfentrazone 0.5 weight %); 92 w/w % in series [4] (mixture: REAX 88B 0.30, C14NBr 0.8, sulfentrazone 0.5 weight %). The “Uptake of sulfentrazone in the aggregate” value in series [4] (mixture: REAX 88B 0.5, C14NBr 1.0, sulfentrazone 0.5 weight %) stood at 94 w/w %.
Regarding `O=C(NC(=O)c1c(F)cccc1F)Nc1cc(Cl)c(OC(F)(F)C(F)C(F)(F)F)cc1Cl` (centres unmarked) [Lufenuron], the Percent a.i. in series [1] is 8.16.
Still for that read-out and setting: to `CS(=O)(=O)c1ccc(C(=O)C2C(=O)CCCC2=O)c([N+](=O)[O-])c1` [Mesotrione] belongs 6.21.
Take `C[C@@H](Oc1ccc(Oc2cnc3cc(Cl)ccc3n2)cc1)C(=O)O` [Quizalofop-P]: the Percent a.i. in series [1] is listed as 4.76. For the same compound, the pKa in series [2] is given as over 3.
With `C=C1C[C@]23C[C@@]1(O)CC[C@H]2[C@@]12C=C[C@H](O)[C@@](C)(C(=O)O1)[C@H]2[C@@H]3C(=O)O` [Gibberellic acid], the Percent a.i. in series [1] came to 6.28.
Turning to `CC1(C(=O)Nc2ccc(O)c(Cl)c2Cl)CCCCC1` [Fenhexamid], in series [1], the Percent a.i. came out at 4.47.
